Experiments:
Experiment in all cases: relative viability (nuclei count vs DMSO), 5 days (fraction); higher = more cells survive
Trametinib + Lapatinib = compound: CC(=O)Nc1cccc(-n2c(=O)n(C3CC3)c(=O)c3c(Nc4ccc(I)cc4F)n(C)c(=O)c(C)c32)c1 [Trametinib] + CS(=O)(=O)CCNCc1ccc(-c2ccc3ncnc(Nc4ccc(OCc5cccc(F)c5)c(Cl)c4)c3c2)o1 [Lapatinib] (partner 2 µM)
How it was run: (§1)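 Values are medians from duplicate plates. Each reflects relative viability, defined as the nuclei count of treated wells over that of vehicle wells. Lung cancer cell lines in 1536-well plates were pin-tool dosed one day after seeding with one drug alone or with a fixed anchor-drug dose plus five library-drug doses (not always all listed) in √10 steps, then fixed, stained and imaged at 4× after 5 days.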

Trametinib + Tozasertib = compound: CC(=O)Nc1cccc(-n2c(=O)n(C3CC3)c(=O)c3c(Nc4ccc(I)cc4F)n(C)c(=O)c(C)c32)c1 [Trametinib] + Cc1cc(Nc2cc(N3CCN(C)CC3)nc(Sc3ccc(NC(=O)C4CC4)cc3)n2)n[nH]1 [Tozasertib] (partner 0.1 µM)
How it was run: as §1

[1] = compound: CN1C=C(C2=CC=CC=C21)/C=C\3/C4=C(C=CC=N4)NC3=O + CC(C)C[C@H](NC(=O)[C@H](Cc1ccccc1)NC(=O)c1cnccn1)B(O)O [Bortezomib] (partner 0.002 µM)
How it was run: as §1

[2] = compound: CN1C=C(C2=CC=CC=C21)/C=C\3/C4=C(C=CC=N4)NC3=O + C[C@]1(O)C[C@@H](c2nc(-c3ccc4ccc(-c5ccccc5)nc4c3)c3c(N)nccn32)C1 [Linsitinib] (partner 1 µM)
How it was run: as §1

Cell Line | relative viability (Trametinib + Lapatinib; first compound 0.0025 µM) | relative viability (Trametinib + Lapatinib; first compound 0.007906 µM) | relative viability (Trametinib + Lapatinib; first compound 0.025 µM) | relative viability (Trametinib + Lapatinib; first compound 0.07906 µM) | relative viability (Trametinib + Lapatinib; first compound 0.25 µM) | relative viability (Trametinib + Tozasertib; first compound 0.0025 µM) | relative viability (Trametinib + Tozasertib; first compound 0.007906 µM) | relative viability (Trametinib + Tozasertib; first compound 0.025 µM) | relative viability (Trametinib + Tozasertib; first compound 0.07906 µM) | relative viability (Trametinib + Tozasertib; first compound 0.25 µM) | relative viability ([1]; first compound 0.02 µM) | relative viability ([1]; first compound 0.06325 µM) | relative viability ([1]; first compound 0.2 µM) | relative viability ([1]; first compound 0.6325 µM) | relative viability ([1]; first compound 2 µM) | relative viability ([2]; first compound 0.02 µM) | relative viability ([2]; first compound 0.06325 µM) | relative viability ([2]; first compound 0.2 µM) | relative viability ([2]; first compound 0.6325 µM) | relative viability ([2]; first compound 2 µM)
NCI-H1437 | 0.673 | 0.278 | 0.17 | 0.178 | 0.209 | 0.266 | 0.289 | 0.239 | 0.204 | 0.175 | 0.629 | 0.613 | 0.475 | 0.511 | 0.54 | 1.06 | 1.12 | 1.25 | 1.18 | 1.2
NCI-H1651 | 0.757 | 0.74 | 0.66 | 0.531 | 0.452 | 0.666 | 0.555 | 0.541 | 0.526 | 0.498 | 0.811 | 1.03 | 0.931 | 0.885 | 1.06 | 0.958 | 0.989 | 1.03 | 1.06 | 1.05
NCI-H1666 | 0.354 | 0.414 | 0.405 | 0.387 | 0.265 | 0.589 | 0.546 | 0.602 | 0.541 | 0.475 | 1 | 0.77 | 0.542 | 0.692 | 0.709 | 0.85 | 0.712 | 0.79 | 0.748 | 0.665
NCI-H1734 | 1.02 | 1.01 |  | 1.03 | 0.517 | 0.255 | 0.243 | 0.216 | 0.203 | 0.205 | 0.91 | 0.851 |  | 0.859 | 1.02 | 0.803 | 0.853 |  | 1.09 | 0.889
NCI-H1755 | 0.969 | 0.897 | 0.849 | 0.871 | 0.863 | 0.544 | 0.537 | 0.604 | 0.63 | 0.545 | 0.953 | 0.889 | 0.868 | 0.953 | 0.87 | 0.95 | 1.01 | 0.967 | 0.968 | 0.991
NCI-H1915 | 1.01 | 0.929 | 0.873 | 0.538 | 0.253 | 0.453 | 0.337 | 0.268 | 0.219 | 0.165 | 0.913 | 1 | 0.962 | 1.11 | 1.15 | 1.07 | 1.1 | 1.08 | 1.12 | 1.06
NCI-H1975 | 0.816 | 0.725 | 0.534 | 0.385 | 0.292 | 0.716 | 0.703 | 0.478 | 0.338 | 0.29 | 0.431 | 0.36 | 0.344 | 0.322 | 0.317 | 0.921 | 1.04 | 0.982 | 0.694 | 0.661
NCI-H1993 | 0.824 | 0.909 | 0.651 | 0.648 | 0.682 | 0.539 | 0.498 | 0.568 | 0.558 | 0.459 | 0.916 | 1.09 | 1.09 | 0.691 | 0.697 | 0.539 | 0.635 | 0.71 | 0.765 | 0.621
NCI-H2009 | 0.841 | 0.612 | 0.225 | 0.343 | 0.236 | 0.689 | 0.489 | 0.378 | 0.302 | 0.244 | 1.01 | 0.963 | 0.963 | 1.07 | 1 | 1.24 | 1.11 | 1.23 | 1.23 | 1.25
NCI-H2023 | 0.947 | 0.356 | 0.383 | 0.579 | 0.181 | 0.232 | 0.262 | 0.26 | 0.232 | 0.199 | 1.09 | 0.903 | 0.268 | 0.958 | 1.04 | 0.615 | 0.657 | 0.628 | 0.665 | 0.692
NCI-H2085 | 0.783 | 0.707 | 0.426 | 0.668 | 0.549 | 0.721 | 0.598 | 0.551 | 0.561 | 0.621 | 0.993 | 1.07 | 0.995 | 1.07 | 1.04 | 0.867 | 0.825 | 0.867 | 0.866 | 1.02
NCI-H2087 | 1.1 | 0.665 | 0.496 | 0.254 | 0.18 | 0.189 | 0.166 | 0.111 | 0.12 | 0.108 | 0.812 | 0.815 | 0.882 | 0.839 | 0.836 | 0.82 | 0.708 | 1.02 | 0.944 | 1.23
NCI-H2126 | 0.721 | 0.675 | 0.46 | 0.703 | 0.718 | 0.784 | 0.694 | 0.523 | 0.653 | 0.576 | 1.19 | 1.15 | 1.09 | 1.16 | 1.12 | 0.739 | 0.751 | 0.727 | 0.745 | 0.65
NCI-H2228 | 0.881 | 0.513 | 0.765 | 0.734 | 0.286 | 0.239 | 0.209 | 0.207 | 0.211 | 0.132 | 0.882 | 0.834 |  | 0.887 | 1.19 | 0.53 | 0.463 |  | 0.603 | 0.759
NCI-H2347 | 0.961 | 0.56 | 0.503 | 0.435 | 0.452 | 0.509 | 0.33 | 0.176 | 0.154 | 0.185 | 0.976 | 1.01 | 0.906 | 0.615 | 1 | 0.998 | 0.963 | 0.944 | 0.986 | 0.959
NCI-H2405 | 0.992 | 0.68 | 0.498 | 0.499 | 0.481 | 0.695 | 0.687 | 0.664 | 0.497 | 0.468 | 0.997 | 0.874 |  | 0.892 | 1 | 0.871 | 0.912 | 0.783 | 0.954 | 0.816
